Data reported in patent US20230117920A1, “Library Construction Method, Cyclic Peptide, FXIIa Binder and IFNGR1 Binder” (The University of Tokyo, priority 2019, published 2023).
Positions of bridges follow the written chain, without caps; N, C: chain ends. Non-standard residues stand in square brackets, D forms with d. Residues, ends and D or L forms follow the SMILES beside them.

Assays:
[1] = biological target: T1, interferon γ receptor 1 (IFNGR1) (Homo sapiens, UniProt P15260); settings: SPR, 25° C., 1:1 interaction model
Target sequence in this assay (P15260 18-245 limits assumed): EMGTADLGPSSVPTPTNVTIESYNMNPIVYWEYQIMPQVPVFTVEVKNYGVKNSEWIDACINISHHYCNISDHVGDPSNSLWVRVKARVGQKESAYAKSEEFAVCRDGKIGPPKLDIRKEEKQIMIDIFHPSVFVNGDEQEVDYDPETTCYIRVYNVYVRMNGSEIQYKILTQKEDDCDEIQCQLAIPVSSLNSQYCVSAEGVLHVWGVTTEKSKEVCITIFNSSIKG
Experimental: Recombinant biotinylated human FXIIa was purchased from Molecular Innovations. The recombinant human IgG1 Fc and Fc labeled human IFNGR1 were purchased from R&D systems and AcroBiosystems, respectively.
The binding kinetics of those peptides to FXIIA and IFNGR1 was analyzed by surface plasmon resonance. […] The binding affinity was analyzed at 25° C. by SPR by using a Biacore T200 apparatus (GE Healthcare). The peptides, each used at five different concentrations, were injected at a floe rate of 30 μL/min and the rate constant was measured by single cycle kinetics method. The binding sensorgrams thus obtained were analyzed using a Biacore evaluation software and was fitted to a standard 1:1 interaction model.

[2] = biological target: T1, interferon γ receptor 1 (IFNGR1); experiment: biochemical; settings: read-out: ka

Q: For `CC(C)[C@@H]1NC(=O)CNC(=O)[C@H](Cc2ccccc2)NC(=O)[C@@H](Cc2ccc(O)cc2)NC(=O)CSC[C@H](C(N)=O)NC(=O)[C@H]([C@@H](C)O)NC(=O)[C@H](CCCNC(=N)N)NC(=O)[C@H](CC(N)=O)NC(=O)[C@H](Cc2ccc(O)cc2)NC(=O)[C@H](Cc2ccccc2)NC(=O)[C@H](C)NC(=O)[C@H](CCCNC(=N)N)NC1=O` [I1-1A] ({CH2CO}-[dY]FGVRAFYNRT[dC]-NH2; thioether N-12), which kd [1] is on record?
A: The kd was 4.12 10^−2 · s^−1.

Q: What about the kon [2] of the same compound?
A: Its kon is 20000 M⁻¹ s⁻¹.
